Results from patent publication US20240158797A1, “ANTISENSE OLIGONUCLEOTIDES FOR THEIR USE IN AN ANTI-CANCER TREATMENT” (UNIVERSITÉ GRENOBLE ALPES, priority 2021, published 2024).

What was measured:
[1] = system: 6-O-methylguanine DNA methyltransferase (MGMT) protein; assay: Test of the expression level of the MGMT protein (western blot) in T98G cells; assay type: cell-based; settings: for levels of MGMT protein: T98G glioma cells, 100 μM ASO in lipofectamine 48 h, western blot vs ASO Scr, at least four repetitions
Protocol: (§1) The U87, T98G and U251 glioma cell lines are cultured in DMEM medium («Dulbecco/Vogt modified Eagle's minimal essential medium» supplemented with 10% fetal calf serum and 1% penicillin and streptomycin.
(§2) When the cultures are at 60% confluence, they are transfected with 100 μM of antisense oligonucleotide (ASO) RG6042 (of sequence SEQ ID NO: 1), or PH1 (SEQ ID NO: 2) or PH2 (SEQ ID NO: 3) or PH3 (SEQ ID NO: 4) or Scr in lipofectamine for 48 h. The ASO Scr (for «scramble» is an ASO serving as a control whose sequence SEQ ID NO: 5 is <A*CATG*>A*C*C*G*C*A*C*T*C*A*<CTAT*A> where * is a phosphorothioate bond and the bases between the signs < and > are 2′-O-methoxyethyl RNA.
Cells transfected with ASO RG6042, ASO Scr, or treated with lipofectamine alone (for control), are harvested for the test of the expression level of the MGMT protein.
The protocol is the same as for the previously cited test of the expression level of the HTT protein with the only change being the use of anti-MGMT antibodies (#2739, from the Cell signaling Technology® brand) in incubation to reveal the MGMT protein. The vinculin is also used here as a load control.
(§3) FIG. 4 illustrates in A the result of the western blot produced from cells of the T98G cell line having been transfected with ASO RG6042, with ASO Scr or treated with lipofectamine alone (Ctrl) and, in B, the quantification of MGMT protein levels obtained by western blot after at least 4 repetitions of the experiment presented in A.
(§4) T98G cells transfected with ASO RG6042, or ASO PH1, or ASO PH2 or ASO PH3, or ASO Scr, are harvested for testing the expression level of HTT proteins and MGMT.
(§5) The protocol is the same as for the previously cited tests for the expression level of the HTT protein and the expression level of the MGMT protein. The vinculin is also used here as a load control.
(§6) FIG. 6 illustrates the quantification of the protein levels of HTT in A and of MGMT in B, obtained by western blot after at least four repetitions of the experiment presented in FIG. 5. The statistics were carried out using the Kruskal-wallis test followed by Dunn's multiple comparison test, error bars, SEM, *p<0.05, **p<0.001.

[2] = system: huntingtin (HTT) protein; assay: Test of the expression level of the HTT protein in T98G cells transfected with ASO RG6042, PH1, PH2, PH3 or Scr; assay type: cell-based; settings: T98G glioma cells, 100 μM ASO in lipofectamine 48 h; western blot vs ASO Scr, at least four repetitions
Protocol: as §1, §2
The cells are rinsed with phosphate-buffered saline (PBS) and then lysed in RIPA-type lysis buffer supplemented with protease and phosphatase inhibitors. The proteins solubilized in the buffer are harvested after centrifugation, denatured in Laemmli loading buffer and deposited on polyacrylamide gel. After migration, the proteins are transferred onto a polyvinylidine difluoride (PVDF) membrane. […] The vinculin is used as a load control.
as §4, §5
FIG. 5 illustrates the result of the western blot produced from cells of the T98G cell line having been transfected with ASO RG6042, with ASO PH1, with ASO PH2, with ASO PH3, or with ASO Scr.
as §6

[3] = system: huntingtin protein (HTT); assay: Huntingtin (HTT) protein expression level test (western blot) in transfected glioma cells; assay type: cell-based; settings: glioma cells (U251, U87, T98G) transfected with 100 μM ASO in lipofectamine for 48 h; western blot vs ASO Scr / lipofectamine alone
Protocol: as §1
as §2, with “RNA. […]” for “RNA.”
FIG. 1 illustrates in A the results of the western blot carried out from cells of the U251 cell line having been transfected with ASO RG6042, with the ASO Scr or simply treated with lipofectamine alone (Ctrl for control), and, in B, the quantification of HTT protein levels obtained by western blot after 4 repetitions of the experiment presented in A.
as §3, with “FIG. 2” for “FIG. 4”, “the U87” for “the T98G”, “alone (Ctrl),” for “alone (Ctrl)”, “of HTT” for “of MGMT”, “least 3” for “least 4”, “A. […]” for “A.”

[4] = system: U87 cell line; assay: Temozolomide (TMZ) sensitivity test (MTT), U87 line; assay type: cell-based; settings: U87 cultures, RG6042 vs control
Protocol: as §1
as §2, with “RNA. […]” for “RNA.”
(§7) The yellow probe of MTT, 3-(4,5-Dimethyl-2-thiazolyl)-2,5-diphenyl-2H-tetrazolium bromide, is then added at a working concentration of 0.5 mg·ml^−1 to each well. […] The optical density (OD) of the contents of each well is then analyzed with a spectrophotometer at wavelengths comprised between 490 nm and 570 nm. […]
(§8) FIG. 9 illustrates in A a curve showing the percentage of living cells of the U87 line transfected with ASO RG6042 or treated with lipofectamine alone (Ctrl) as a function of the received dose of TMZ and, in B, the averages TMZ concentrations measured at the LD50 in 4 different MTT tests for cells of the U251 line transfected with ASO RG6042 or treated with lipofectamine alone (Ctrl).

[5] = system: U251 cell line; assay: Temozolomide (TMZ) sensitivity test (MTT), U251 line; assay type: cell-based; settings: U251 cultures, RG6042 vs control
Protocol: as §1
as §2, with “RNA. […]” for “RNA.”
as §7
as §8, with “8” for “9”, “live” for “living”, “U251” for “U87”, “average” for “averages”

[6] = system: T98G cell line; assay: Temozolomide (TMZ) sensitivity test (MTT), T98G line; assay type: cell-based; settings: T98G cultures, RG6042 vs control
Protocol: as §1
as §2, with “RNA. […]” for “RNA.”
as §7
as §8, with “FIG. 10” for “FIG. 9”, “the T98G” for “the U87”, “the average” for “the averages”, “in 6” for “in 4”, “the T98G” for “the U251”

[7] = system: U251 cell line; assay: Sensitivity test to the alkylating agent Lomustine (MTT), U251 line; assay type: cell-based
Protocol: as §1, §2
(§9) The cells transfected with ASO RG6042 or ASO Scr are harvested for the sensitivity test to the alkylating agent Lomustine.
(§10) The Lomustine was prepared in the form of a stock solution of 50 mg/ml (214 mM) in pure ethanol. The solution was filtered to sterilize it (0.2 μm pore filter) and frozen at −20° C. until further use. […]
FIG. 11 illustrates in A a curve showing the percentage of living cells of the U251 line transfected with ASO RG6042 or Scr as a function of the dose of Lomustine received and, in B, the mean of the concentrations of Lomustine measured at the LD50 in 4 different MTT assays for U251 cell line transfected with ASO RG6042 or Scr.

[8] = system: T98G cell line; assay: Sensitivity test to the alkylating agent Lomustine (MTT), T98G line; assay type: cell-based
Protocol: as §1, §2, §9, §10
FIG. 12 illustrates in A a curve showing the percentage of live cells of the T98G line transfected with ASO RG6042 or Scr as a function of the received dose of Lomustine and, in B, the mean of the concentrations of Lomustine measured at the LD50 in 4 different MTT assays for T98G cell line transfected with ASO RG6042 or Scr.

[9] = system: HTT; settings: patients with Huntington's disease, after 4 intrathecal injections (Tabrizi et al. 2019); cited from earlier work

Substance | levels of MGMT protein [1] | levels of HTT protein [2] | HTT protein levels [3] | MGMT levels ([1]; T98G cells transfected with 100 μM ASO in lipofectamine for 48 h, western blot vs ASO Scr / lipofectamine alone) | reduction in the LD50 at the TMZ [4] [%] | reduction in the LD50 at the TMZ [5] [%] | reduction in the LD50 at the TMZ [6] [%] | sensitization to the alkylating agent Lomustine ([7]; U251 cells) | reduction in the LD50 of Lomustine ([7]; U251 cultures, RG6042 vs Scr) [%] | sensitization to the alkylating agent Lomustine ([8]; T98G cells) | reduction in the LD50 of Lomustine ([8]; T98G cultures, RG6042 vs Scr) [%] | HTT levels in the cerebrospinal fluid [9]
ASO PH3: antisense oligonucleotide of sequence SEQ ID NO: 4 reducing HTT and MGMT levels (antisense CCTGCATCAGCTTTATTTGT; listed as DNA, chemistry not given here) | significantly reduce | significantly reduce |  |  |  |  |  |  |  |  |  | 
ASO PH2: antisense oligonucleotide of sequence SEQ ID NO: 3 reducing HTT and MGMT levels (antisense CTCGACTAAAGCAGGATTTC; listed as DNA, chemistry not given here) | significantly reduce | significantly reduce |  |  |  |  |  |  |  |  |  | 
ASO PH1: antisense oligonucleotide of sequence SEQ ID NO: 2 reducing HTT and MGMT levels (antisense TCTCTATTGCACATTCCAAG; listed as DNA, chemistry not given here) | significantly reduce | significantly reduce |  |  |  |  |  |  |  |  |  | 
ASO RG6042: antisense oligonucleotide of sequence SEQ ID NO: 1 targeting huntingtin mRNA; sequence from literature, clinical trials in Huntington's disease (antisense CTCAGTAACATTGACACCAC; listed as DNA, chemistry not given here) | significantly reduce | significantly reduce | significantly reduces | significantly reduces | 32 | 40 | 45 | sensitizes | 41 | sensitizes | 47 | decreased
